According to PubChem BioAssay (NCI):
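Tested at 5 concentrations; 48 h exposure; 96-well plates; endpoints linearly interpolated, else capped at highest concentration. The concentration for 50% growth inhibition is given as GI50. TGI is the concentration that stops growth completely.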

Tests used:
Test in all cases: inhibition of tumour cell growth, NCI panel, 48 h
SR leukemia = system: SR leukemia
A498 renal = system: A498 renal
SN12C renal = system: SN12C renal
A549 NSCLC = system: A549 NSCLC
HT29 colon = system: HT29 colon
786-0 renal = system: 786-0 renal
OVCAR-4 ovarian = system: OVCAR-4 ovarian
MDA-MB-231 breast = system: MDA-MB-231 breast
SF-268 CNS = system: SF-268 CNS
K-562 leukemia = system: K-562 leukemia
UACC-62 melanoma = system: UACC-62 melanoma
U251 CNS = system: U251 CNS
RXF 393 renal = system: RXF 393 renal
BT-549 breast = system: BT-549 breast
SNB-75 CNS = system: SNB-75 CNS
HCT-15 colon = system: HCT-15 colon
SK-MEL-5 melanoma = system: SK-MEL-5 melanoma
SW-620 colon = system: SW-620 colon
NCI-H522 lung = system: NCI-H522 lung
NCI-H226 lung = system: NCI-H226 lung
SF-539 CNS = system: SF-539 CNS
M14 melanoma = system: M14 melanoma
PC-3 prostate = system: PC-3 prostate
HS 578T breast = system: HS 578T breast
ACHN renal = system: ACHN renal
SK-MEL-28 melanoma = system: SK-MEL-28 melanoma
DU-145 prostate = system: DU-145 prostate
SNB-19 CNS = system: SNB-19 CNS
MCF7 breast = system: MCF7 breast
NCI-H23 lung = system: NCI-H23 lung
OVCAR-3 ovarian = system: OVCAR-3 ovarian
OVCAR-5 ovarian = system: OVCAR-5 ovarian
EKVX NSCLC = system: EKVX NSCLC
CAKI-1 renal = system: CAKI-1 renal
SF-295 CNS = system: SF-295 CNS
COLO 205 colon = system: COLO 205 colon
SK-OV-3 ovarian = system: SK-OV-3 ovarian
UACC-257 melanoma = system: UACC-257 melanoma
MDA-MB-435 = system: MDA-MB-435
LOX IMVI melanoma = system: LOX IMVI melanoma
KM12 colon = system: KM12 colon
T-47D breast = system: T-47D breast
NCI/ADR-RES ovarian = system: NCI/ADR-RES ovarian
UO-31 renal = system: UO-31 renal
CCRF-CEM leukemia = system: CCRF-CEM leukemia
RPMI-8226 leukemia = system: RPMI-8226 leukemia
HCT-116 colon = system: HCT-116 colon
SK-MEL-2 melanoma = system: SK-MEL-2 melanoma
HCC-2998 colon = system: HCC-2998 colon
IGROV1 ovarian = system: IGROV1 ovarian
MALME-3M melanoma = system: MALME-3M melanoma
MOLT-4 leukemia = system: MOLT-4 leukemia
HOP-92 NSCLC = system: HOP-92 NSCLC
OVCAR-8 ovarian = system: OVCAR-8 ovarian
HOP-62 NSCLC = system: HOP-62 NSCLC
HL-60(TB) leukemia = system: HL-60(TB) leukemia
NCI-H460 lung = system: NCI-H460 lung
TK-10 renal = system: TK-10 renal

Cc1cc(Nc2ccc(OCc3ccccc3)cc2)nc2cc(O)ccc12
GI50 (SR leukemia): 3.26 µM
TGI (SR leukemia): 13.8 µM
GI50 (A498 renal): 13 µM
TGI (A498 renal): 27 µM
GI50 (SN12C renal): 5.75 µM
TGI (SN12C renal): 20.3 µM
GI50 (A549 NSCLC): 5.23 µM
TGI (A549 NSCLC): 20.4 µM
GI50 (HT29 colon): 3.86 µM
TGI (HT29 colon): 14.9 µM
GI50 (786-0 renal): 4.51 µM
TGI (786-0 renal): 17.2 µM
GI50 (OVCAR-4 ovarian): 8.74 µM
TGI (OVCAR-4 ovarian): 22.6 µM
GI50 (MDA-MB-231 breast): 2.52 µM
TGI (MDA-MB-231 breast): 8.78 µM
GI50 (SF-268 CNS): 11.9 µM
TGI (SF-268 CNS): 26.4 µM
GI50 (K-562 leukemia): 1.09 µM
TGI (K-562 leukemia): 14.9 µM
GI50 (UACC-62 melanoma): 2.96 µM
TGI (UACC-62 melanoma): 10.7 µM
GI50 (U251 CNS): 4.54 µM
TGI (U251 CNS): 17.5 µM
GI50 (RXF 393 renal): 2.95 µM
TGI (RXF 393 renal): 12.1 µM
GI50 (BT-549 breast): 5.46 µM
TGI (BT-549 breast): 21 µM
GI50 (SNB-75 CNS): 2.4 µM
TGI (SNB-75 CNS): 11.2 µM
GI50 (HCT-15 colon): 2.16 µM
TGI (HCT-15 colon): 5.48 µM
GI50 (SK-MEL-5 melanoma): 1.68 µM
TGI (SK-MEL-5 melanoma): 3.2 µM
GI50 (SW-620 colon): 5.12 µM
TGI (SW-620 colon): 19.4 µM
GI50 (NCI-H522 lung): 3.01 µM
TGI (NCI-H522 lung): 12.1 µM
GI50 (NCI-H226 lung): 3.49 µM
TGI (NCI-H226 lung): 17.6 µM
GI50 (SF-539 CNS): 2.08 µM
TGI (SF-539 CNS): 4.93 µM
GI50 (M14 melanoma): 2.39 µM
TGI (M14 melanoma): 6.15 µM
GI50 (PC-3 prostate): 3.46 µM
TGI (PC-3 prostate): 18 µM
GI50 (HS 578T breast): 10.2 µM
TGI (HS 578T breast): 29.2 µM
GI50 (ACHN renal): 3.41 µM
TGI (ACHN renal): 13.3 µM
GI50 (SK-MEL-28 melanoma): 2.95 µM
TGI (SK-MEL-28 melanoma): 8.19 µM
GI50 (DU-145 prostate): 11.9 µM
TGI (DU-145 prostate): 25.4 µM
GI50 (SNB-19 CNS): 9.57 µM
TGI (SNB-19 CNS): 23.2 µM
GI50 (MCF7 breast): 3.32 µM
TGI (MCF7 breast): 14.2 µM
GI50 (NCI-H23 lung): 6.91 µM
TGI (NCI-H23 lung): 21.5 µM
GI50 (OVCAR-3 ovarian): 8.79 µM
TGI (OVCAR-3 ovarian): 22.5 µM
GI50 (OVCAR-5 ovarian): 4.66 µM
TGI (OVCAR-5 ovarian): 18.4 µM
GI50 (EKVX NSCLC): 12.3 µM
TGI (EKVX NSCLC): 27.2 µM
GI50 (CAKI-1 renal): 4.88 µM
TGI (CAKI-1 renal): 18.3 µM
GI50 (SF-295 CNS): 2.23 µM
TGI (SF-295 CNS): 5.36 µM
GI50 (COLO 205 colon): 4.84 µM
TGI (COLO 205 colon): 17 µM
GI50 (SK-OV-3 ovarian): 13.4 µM
TGI (SK-OV-3 ovarian): 26.7 µM
GI50 (UACC-257 melanoma): 3.49 µM
TGI (UACC-257 melanoma): 13.5 µM
GI50 (MDA-MB-435): 5.49 µM
TGI (MDA-MB-435): 17.9 µM
GI50 (LOX IMVI melanoma): 2.47 µM
TGI (LOX IMVI melanoma): 6.47 µM
GI50 (KM12 colon): 3.1 µM
TGI (KM12 colon): 13.3 µM
GI50 (T-47D breast): 5.93 µM
TGI (T-47D breast): 23.2 µM
GI50 (NCI/ADR-RES ovarian): 5.93 µM
TGI (NCI/ADR-RES ovarian): 19.8 µM
GI50 (UO-31 renal): 2.04 µM
TGI (UO-31 renal): 6.58 µM
GI50 (CCRF-CEM leukemia): 3.01 µM
TGI (CCRF-CEM leukemia): 20.7 µM
GI50 (RPMI-8226 leukemia): 2.5 µM
TGI (RPMI-8226 leukemia): 8.33 µM
GI50 (HCT-116 colon): 4 µM
TGI (HCT-116 colon): 14.6 µM
GI50 (SK-MEL-2 melanoma): 11.9 µM
TGI (SK-MEL-2 melanoma): 30.1 µM
GI50 (HCC-2998 colon): 2.41 µM
TGI (HCC-2998 colon): 5.18 µM
GI50 (IGROV1 ovarian): 10.6 µM
TGI (IGROV1 ovarian): 26.3 µM
GI50 (MALME-3M melanoma): 3.88 µM
TGI (MALME-3M melanoma): 11.2 µM
GI50 (MOLT-4 leukemia): 3.37 µM
TGI (MOLT-4 leukemia): 17.4 µM
GI50 (HOP-92 NSCLC): 2.01 µM
TGI (HOP-92 NSCLC): 6.26 µM
GI50 (OVCAR-8 ovarian): 12.4 µM
TGI (OVCAR-8 ovarian): 29.5 µM
GI50 (HOP-62 NSCLC): 11.7 µM
TGI (HOP-62 NSCLC): 26.5 µM
GI50 (HL-60(TB) leukemia): 3.38 µM
TGI (HL-60(TB) leukemia): 14.7 µM
GI50 (NCI-H460 lung): 3.09 µM
TGI (NCI-H460 lung): 10.2 µM
GI50 (TK-10 renal): 14.5 µM
TGI (TK-10 renal): 29.2 µM
